Measured values reported in ChEMBL document CHEMBL1145273, “New cytotoxic bisindole alkaloids with protein tyrosine kinase inhibitory activity from a myxomycete Lycogala epidendrum” (Bioorg Med Chem Lett, 2005).
≈ marks a conversion by molar mass, not a printed value.

Assays:
[1] = target: Vascular endothelial growth factor receptor 1 (Homo sapiens) (UniProt P17948); assay: Inhibition of Vascular endothelial growth factor receptor 1 mediated [gamma-32P]-ATP incorporation at 1 ug/mL
[2] = target: T1, Eukaryotic elongation factor 2 kinase (Homo sapiens) (UniProt O00418); assay: Inhibition of eukaryotic elongation factor-2 kinase mediated [gamma-32P]-ATP incorporation at 0.1 ug/mL
T1 sequence (whole entry): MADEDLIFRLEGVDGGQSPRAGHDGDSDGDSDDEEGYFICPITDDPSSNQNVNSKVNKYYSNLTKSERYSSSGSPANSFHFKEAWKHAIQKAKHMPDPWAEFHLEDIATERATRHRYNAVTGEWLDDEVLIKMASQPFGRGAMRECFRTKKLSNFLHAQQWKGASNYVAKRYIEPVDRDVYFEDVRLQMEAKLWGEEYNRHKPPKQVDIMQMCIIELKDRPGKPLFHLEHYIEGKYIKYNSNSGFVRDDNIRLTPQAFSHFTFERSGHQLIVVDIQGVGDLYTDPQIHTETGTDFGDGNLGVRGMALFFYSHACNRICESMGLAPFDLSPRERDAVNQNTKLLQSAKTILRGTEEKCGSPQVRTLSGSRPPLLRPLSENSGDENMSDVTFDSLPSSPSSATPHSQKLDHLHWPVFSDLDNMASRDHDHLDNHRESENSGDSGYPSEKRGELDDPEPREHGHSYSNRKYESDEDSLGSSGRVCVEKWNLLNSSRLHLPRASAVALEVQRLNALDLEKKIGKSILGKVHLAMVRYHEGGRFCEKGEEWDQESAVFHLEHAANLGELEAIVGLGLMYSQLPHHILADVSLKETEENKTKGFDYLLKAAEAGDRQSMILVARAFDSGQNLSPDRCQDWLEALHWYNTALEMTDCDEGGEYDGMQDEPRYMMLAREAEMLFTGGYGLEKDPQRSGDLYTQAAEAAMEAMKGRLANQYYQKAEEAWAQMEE

[3] = target: Proto-oncogene tyrosine-protein kinase Src (Homo sapiens) (UniProt P12931); assay: Inhibition of protein tyrosine kinase mediated [gamma-32P]-ATP incorporation at 10 ug/mL in src-transformed NIH3T3
[4] = target: T2, cAMP-dependent protein kinase (PKA) (Homo sapiens) (UniProt P22694+P17612+P22612); assay: Inhibition of Protein kinase A mediated [gamma-32P]-ATP incorporation at 10 ug/mL; format: protein assay
[5] = target: Vascular endothelial growth factor receptor 1 (Homo sapiens) (UniProt P17948); assay: Inhibition of Vascular endothelial growth factor receptor 1 mediated [gamma-32P]-ATP incorporation at 10 ug/mL
[6] = target: Proto-oncogene tyrosine-protein kinase Src (Homo sapiens) (UniProt P12931); assay: Inhibition of protein tyrosine kinase mediated [gamma-32P]-ATP incorporation at 0.1 ug/mL in src-transformed NIH3T3
[7] = Cytotoxicity against KB/VJ300 cells; format: functional, cell-based; conditions: Homo sapiens
[8] = target: T2, cAMP-dependent protein kinase (PKA) (Homo sapiens); assay: Inhibition of Protein kinase A mediated [gamma-32P]-ATP incorporation at 1 ug/mL; format: protein assay
[9] = target: T3, Protein kinase C (PKC) (Homo sapiens) (UniProt O94806+P41743+P17252+P05129+Q05655+P05771+Q05513+Q02156+P24723+Q15139+Q04759); assay: Inhibition of Protein kinase C mediated […]-ATP incorporation at 0.1 ug/mL; format: protein assay
[10] = target: T3, Protein kinase C (PKC) (Homo sapiens); assay: Inhibition of Protein kinase C mediated […]-ATP incorporation at 10 ug/mL; format: protein assay
[11] = target: T3, Protein kinase C (PKC) (Homo sapiens); assay: Inhibition of Protein kinase C mediated […]-ATP incorporation at 1 ug/mL; format: protein assay
Jurkat = assay: Cytotoxicity against Jurkat cells; format: functional, cell-based; conditions: Homo sapiens
[12] = target: T1, Eukaryotic elongation factor 2 kinase (Homo sapiens); assay: Inhibition of eukaryotic elongation factor-2 kinase mediated [gamma-32P]-ATP incorporation at 1 ug/mL
[13] = target: Proto-oncogene tyrosine-protein kinase Src (Homo sapiens) (UniProt P12931); assay: Inhibition of protein tyrosine kinase mediated [gamma-32P]-ATP incorporation at 1 ug/mL in src-transformed NIH3T3
[14] = target: T2, cAMP-dependent protein kinase (PKA) (Homo sapiens); assay: Inhibition of Protein kinase A mediated [gamma-32P]-ATP incorporation at 0.1 ug/mL; format: protein assay
[15] = target: T1, Eukaryotic elongation factor 2 kinase (Homo sapiens); assay: Inhibition of eukaryotic elongation factor-2 kinase mediated [gamma-32P]-ATP incorporation at 10 ug/mL
[16] = target: Vascular endothelial growth factor receptor 1 (Homo sapiens) (UniProt P17948); assay: Inhibition of Vascular endothelial growth factor receptor 1 mediated [gamma-32P]-ATP incorporation at 0.1 ug/mL
HeLa = assay: Cytotoxicity against HeLa cells; format: functional, cell-based; conditions: Homo sapiens
[17] = target: T3, Protein kinase C (PKC) (Homo sapiens); assay: Inhibition of Protein kinase C mediated […]-ATP incorporation at 10 ug/mL; Range is 50 to 80%; format: protein assay
[18] = target: Proto-oncogene tyrosine-protein kinase Src (Homo sapiens) (UniProt P12931); assay: Inhibition of protein tyrosine kinase mediated [gamma-32P]-ATP incorporation at 10 ug/mL in src-transformed NIH3T3; range = 50-80%
[19] = target: T1, Eukaryotic elongation factor 2 kinase (Homo sapiens); assay: Inhibition of eukaryotic elongation factor-2 kinase mediated [gamma-32P]-ATP incorporation at 10 ug/mL; Range is 50-80

Vascular endothelial growth factor receptor 1 (Homo sapiens), sequence (P17948 whole entry): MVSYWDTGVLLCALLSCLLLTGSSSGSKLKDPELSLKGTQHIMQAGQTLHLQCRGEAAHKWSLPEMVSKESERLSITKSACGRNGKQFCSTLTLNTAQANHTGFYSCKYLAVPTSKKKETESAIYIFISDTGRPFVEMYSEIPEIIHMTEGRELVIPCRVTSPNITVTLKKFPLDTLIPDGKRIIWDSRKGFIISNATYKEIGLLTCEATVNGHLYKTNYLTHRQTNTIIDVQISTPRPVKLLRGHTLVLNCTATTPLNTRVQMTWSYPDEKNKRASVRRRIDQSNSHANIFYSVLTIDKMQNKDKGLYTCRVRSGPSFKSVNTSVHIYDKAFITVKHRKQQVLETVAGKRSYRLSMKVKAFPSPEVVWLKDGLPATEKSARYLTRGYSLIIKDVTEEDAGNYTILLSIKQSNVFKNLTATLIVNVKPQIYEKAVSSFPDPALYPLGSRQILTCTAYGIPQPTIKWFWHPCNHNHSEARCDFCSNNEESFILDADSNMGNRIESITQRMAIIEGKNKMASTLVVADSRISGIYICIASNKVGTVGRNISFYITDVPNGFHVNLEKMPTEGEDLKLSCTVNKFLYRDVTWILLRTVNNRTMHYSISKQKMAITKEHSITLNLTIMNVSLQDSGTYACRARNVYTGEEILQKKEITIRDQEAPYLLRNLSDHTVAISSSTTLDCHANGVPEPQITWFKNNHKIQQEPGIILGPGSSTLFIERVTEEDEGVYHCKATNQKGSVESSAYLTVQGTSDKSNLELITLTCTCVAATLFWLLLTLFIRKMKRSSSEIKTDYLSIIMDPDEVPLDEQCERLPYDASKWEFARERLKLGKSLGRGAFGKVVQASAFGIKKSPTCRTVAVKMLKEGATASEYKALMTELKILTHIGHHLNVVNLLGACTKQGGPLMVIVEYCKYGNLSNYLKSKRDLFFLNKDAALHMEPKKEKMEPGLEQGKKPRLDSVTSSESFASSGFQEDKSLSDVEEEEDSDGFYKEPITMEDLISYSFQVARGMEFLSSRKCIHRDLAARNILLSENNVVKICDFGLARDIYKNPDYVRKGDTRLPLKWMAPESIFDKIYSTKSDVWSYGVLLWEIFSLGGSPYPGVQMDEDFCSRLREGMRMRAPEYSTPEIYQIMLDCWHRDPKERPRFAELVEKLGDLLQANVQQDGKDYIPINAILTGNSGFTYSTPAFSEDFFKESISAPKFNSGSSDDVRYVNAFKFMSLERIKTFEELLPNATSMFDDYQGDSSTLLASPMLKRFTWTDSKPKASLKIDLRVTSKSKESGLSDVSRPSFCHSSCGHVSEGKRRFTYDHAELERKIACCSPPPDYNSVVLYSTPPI
Proto-oncogene tyrosine-protein kinase Src (Homo sapiens), sequence (P12931 2-536 limits assumed): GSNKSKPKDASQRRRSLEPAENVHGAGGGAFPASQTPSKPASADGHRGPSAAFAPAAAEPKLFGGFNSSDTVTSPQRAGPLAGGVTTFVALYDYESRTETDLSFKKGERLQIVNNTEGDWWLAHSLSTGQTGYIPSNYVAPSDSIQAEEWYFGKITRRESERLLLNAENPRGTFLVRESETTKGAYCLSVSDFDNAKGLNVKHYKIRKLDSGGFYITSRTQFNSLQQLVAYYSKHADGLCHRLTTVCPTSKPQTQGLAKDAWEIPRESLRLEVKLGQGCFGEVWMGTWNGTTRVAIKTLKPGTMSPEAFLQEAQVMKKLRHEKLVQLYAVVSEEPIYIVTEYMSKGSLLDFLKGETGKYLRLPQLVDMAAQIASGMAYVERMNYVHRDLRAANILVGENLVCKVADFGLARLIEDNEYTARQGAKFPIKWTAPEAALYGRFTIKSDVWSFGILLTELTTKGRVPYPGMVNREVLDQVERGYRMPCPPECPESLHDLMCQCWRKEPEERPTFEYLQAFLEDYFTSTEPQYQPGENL

inhibition [1] [%]	inhibition [2] [%]	inhibition [3] [%]	inhibition [4] [%]	inhibition [5] [%]	inhibition [6] [%]	inhibition [8] [%]	inhibition [9] [%]	inhibition [10] [%]	inhibition [11] [%]	inhibition [12] [%]	inhibition [13] [%]	inhibition [14] [%]	inhibition [15] [%]	inhibition [16] [%]	Structure (SMILES)	IC50 [7] [µg/mL]	IC50 (Jurkat) [µg/mL]	IC50 (HeLa) [µg/mL]	also measured
< 50	< 50	< 50	< 50	< 50	< 50	< 50	< 50	< 50	< 50	< 50	< 50	< 50	< 50	–	COC(=O)c1[nH]c(C(=O)OC)c(-c2c[nH]c3ccccc23)c1-c1c[nH]c2ccccc12 [LYCOGARUBIN C]	> 25	15.3 (≈ 37 µM)	–	–
< 50	< 50	80	80	< 50	< 50	< 50	–	–	< 50	< 50	< 50	< 50	< 50	< 50	O=C1NC(=O)C(c2c[nH]c3ccccc23)=C1c1c[nH]c2ccccc12 [RO-316233]	> 25	6.3 (≈ 19.2 µM)	–	–
< 50	< 50	–	< 50	< 50	< 50	< 50	< 50	–	< 50	< 50	< 50	< 50	< 50	< 50	O=C1NC(=O)c2c1c1c3ccccc3[nH]c1c1[nH]c3cc(O)c(O)cc3c21	25 (≈ 70 µM)	0.84 (≈ 2.35 µM)	2.1 (≈ 5.88 µM)	inhibition [17]: 80%; inhibition [18]: 80%
< 50	< 50	> 80	80	80	< 50	< 50	< 50	80	< 50	< 50	80	< 50	–	< 50	O=C1NCc2c1c1c3ccc(O)cc3[nH]c1c1[nH]c3ccccc3c21	7.6 (≈ 23.2 µM)	1.34 (≈ 4.09 µM)	5.4 (≈ 16.5 µM)	inhibition [19]: 80%
50	< 50	< 50	< 50	< 50	< 50	< 50	< 50	< 50	< 50	< 50	< 50	–	< 50	< 50	COC(=O)c1[nH]c(C(=O)OC)c(-c2c[nH]c3ccc(O)cc23)c1-c1c[nH]c2ccccc12 [LYCOGARUBIN B]	> 25	18 (≈ 41.9 µM)	–	–
